Assay results reported in ChEMBL document CHEMBL3132757, “A new class of fluorinated 5-pyrrolidinylsulfonyl isatin caspase inhibitors for PET imaging of apoptosis” (Medchemcomm, 2013).

How the values were obtained:
[1] = target: Caspase-8 (Homo sapiens, UniProt Q14790); assay: Inhibition of recombinant human caspase-8 expressed in Escherichia coli using Ac-IETD-AMC as substrate preincubated for 30 mins before substrate addition measured after 2 hrs
[2] = target: T1, Caspase-7 (Homo sapiens, UniProt P55210); assay: Inhibition of recombinant human caspase-7 expressed in Escherichia coli using Ac-DEVD-AMC as substrate preincubated for 30 mins before substrate addition measured after 2 hrs
T1 sequence (P55210 whole entry): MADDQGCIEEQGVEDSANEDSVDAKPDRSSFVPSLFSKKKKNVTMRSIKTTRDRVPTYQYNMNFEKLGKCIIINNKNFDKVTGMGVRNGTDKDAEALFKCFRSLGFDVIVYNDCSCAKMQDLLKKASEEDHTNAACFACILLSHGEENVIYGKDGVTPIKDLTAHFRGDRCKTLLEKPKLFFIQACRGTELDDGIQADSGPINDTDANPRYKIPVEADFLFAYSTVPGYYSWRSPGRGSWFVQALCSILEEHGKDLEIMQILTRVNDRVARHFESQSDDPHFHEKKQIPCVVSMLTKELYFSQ

[3] = target: T2, Caspase-6 (Homo sapiens, UniProt P55212); assay: Inhibition of recombinant human caspase-6 expressed in Escherichia coli using Ac-VEID-AMC as substrate preincubated for 30 mins before substrate addition measured after 2 hrs
T2 sequence (P55212 whole entry): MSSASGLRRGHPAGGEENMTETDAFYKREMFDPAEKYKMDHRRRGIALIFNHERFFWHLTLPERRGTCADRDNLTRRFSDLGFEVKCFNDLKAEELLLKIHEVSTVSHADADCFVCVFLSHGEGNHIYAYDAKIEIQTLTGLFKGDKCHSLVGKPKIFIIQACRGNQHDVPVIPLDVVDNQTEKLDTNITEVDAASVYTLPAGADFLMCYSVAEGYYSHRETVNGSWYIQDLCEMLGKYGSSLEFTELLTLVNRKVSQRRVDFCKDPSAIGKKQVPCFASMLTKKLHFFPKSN

[4] = target: T3, Caspase-3 (Homo sapiens, UniProt P42574); assay: Inhibition of recombinant human caspase-3 expressed in Escherichia coli using Ac-DEVD-AMC as substrate preincubated for 30 mins before substrate addition measured after 2 hrs
T3 sequence (P42574 whole entry): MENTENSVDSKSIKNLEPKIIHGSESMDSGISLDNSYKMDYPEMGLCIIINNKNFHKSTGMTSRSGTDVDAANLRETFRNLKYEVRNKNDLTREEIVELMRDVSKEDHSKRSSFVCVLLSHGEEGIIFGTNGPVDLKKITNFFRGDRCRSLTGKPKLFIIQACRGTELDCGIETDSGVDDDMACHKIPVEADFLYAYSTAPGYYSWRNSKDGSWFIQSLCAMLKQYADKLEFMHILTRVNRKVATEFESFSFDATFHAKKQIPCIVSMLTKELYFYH

[5] = target: T4, Caspase-1 (Homo sapiens, UniProt P29466); assay: Inhibition of recombinant human caspase-1 expressed in Escherichia coli using Ac-YVAD-AMC as substrate preincubated for 30 mins before substrate addition measured after 2 hrs
T4 sequence (P29466 whole entry): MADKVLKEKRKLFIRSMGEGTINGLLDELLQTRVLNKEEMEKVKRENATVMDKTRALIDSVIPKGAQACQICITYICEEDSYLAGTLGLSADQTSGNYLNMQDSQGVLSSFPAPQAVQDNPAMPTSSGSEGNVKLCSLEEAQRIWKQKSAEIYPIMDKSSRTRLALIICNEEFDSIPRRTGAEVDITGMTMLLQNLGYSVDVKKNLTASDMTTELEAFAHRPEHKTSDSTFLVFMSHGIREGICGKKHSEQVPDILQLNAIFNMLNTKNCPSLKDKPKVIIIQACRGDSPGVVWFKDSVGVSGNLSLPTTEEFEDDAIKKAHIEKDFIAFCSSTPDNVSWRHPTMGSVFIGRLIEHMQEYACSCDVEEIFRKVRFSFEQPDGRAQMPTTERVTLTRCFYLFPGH

[6] = Lipophilicity, log P of the compound by HPLC method; format: physicochemical

Caspase-8, sequence (Q14790 217-374 limits assumed): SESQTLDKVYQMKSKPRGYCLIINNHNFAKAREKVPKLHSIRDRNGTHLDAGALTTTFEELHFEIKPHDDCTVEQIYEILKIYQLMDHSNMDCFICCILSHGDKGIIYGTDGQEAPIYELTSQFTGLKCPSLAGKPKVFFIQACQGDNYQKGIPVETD
Caspase-8, sequence (Q14790 385-479 limits assumed): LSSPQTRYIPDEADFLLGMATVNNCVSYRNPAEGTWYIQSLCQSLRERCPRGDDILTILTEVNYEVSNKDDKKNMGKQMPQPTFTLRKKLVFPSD

IC50 [1] [nM]	IC50 [2] [nM]	IC50 [3] [nM]	IC50 [4] [nM]	IC50 [5] [nM]	logP [6]	SMILES
> 10000	25.3	> 10000	4.4	1880	1.94	O=C1C(=O)N(Cc2nnnn2Cc2ccccc2)c2ccc(S(=O)(=O)N3CCC[C@H]3CF)cc21
> 10000	14	> 10000	15.2	> 10000	2.5	O=C1C(=O)N(Cc2ccc(F)cc2)c2ccc(S(=O)(=O)N3CCC[C@H]3CF)cc21
> 10000	–	> 10000	6.1	> 10000	3.78	O=C1C(=O)N(Cc2ccc(OCCF)cc2)c2ccc(S(=O)(=O)N3CCC[C@H]3COc3ccccc3)cc21
> 10000	4.6	> 10000	8.3	> 10000	2.08	COC[C@@H]1CCCN1S(=O)(=O)c1ccc2c(c1)C(=O)C(=O)N2Cc1ccc(OCCF)cc1
> 10000	3510	> 10000	2210	> 10000	1.19	O=C1C(=O)N(Cc2ccc(OCCF)cc2)c2ccc(S(=O)(=O)N3CC4CNCC4C3)cc21 (stereo unspecified)
> 10000	20.4	> 10000	13.9	> 10000	2.61	O=C1C(=O)N(Cc2ccccc2)c2ccc(S(=O)(=O)N3CCC[C@H]3CF)cc21
> 10000	15.9	> 10000	6.2	> 10000	3.11	O=C1C(=O)N(Cc2ccc(Br)cc2)c2ccc(S(=O)(=O)N3CCC[C@H]3CF)cc21
> 10000	11.2	> 10000	6.3	> 10000	2.39	O=C1C(=O)N(Cc2ccc([N+](=O)[O-])cc2)c2ccc(S(=O)(=O)N3CCC[C@H]3CF)cc21
> 10000	6.1	> 10000	17.6	> 10000	2.2	COC[C@@H]1CCCN1S(=O)(=O)c1ccc2c(c1)C(=O)C(=O)N2Cc1ccc(OC)cc1
> 10000	24	3880	9.6	522	3.25	O=C1C(=O)N(Cc2ccccc2I)c2ccc(S(=O)(=O)N3CCC[C@H]3CF)cc21
> 10000	14.2	> 10000	7.1	> 10000	2.96	O=C1C(=O)N(Cc2ccc(Cl)cc2)c2ccc(S(=O)(=O)N3CCC[C@H]3CF)cc21
> 10000	9.6	> 10000	13.7	> 10000	2.65	COc1ccc(CN2C(=O)C(=O)c3cc(S(=O)(=O)N4CCC[C@H]4CF)ccc32)cc1
> 10000	41.4	> 10000	19.2	> 10000	2.33	O=C1C(=O)N(Cc2ccc(OCCF)cc2)c2ccc(S(=O)(=O)N3CCC[C@H]3CF)cc21
> 10000	19.8	5080	3.1	672	2.28	O=C1C(=O)N(Cc2ccccc2[N+](=O)[O-])c2ccc(S(=O)(=O)N3CCC[C@H]3CF)cc21
> 10000	5.4	3790	8.1	> 10000	3.31	O=C1C(=O)N(Cc2ccc(I)cc2)c2ccc(S(=O)(=O)N3CCC[C@H]3CF)cc21
> 10000	21.8	> 10000	11.6	1700	3.21	O=C1C(=O)N(Cc2cccc(I)c2)c2ccc(S(=O)(=O)N3CCC[C@H]3CF)cc21
> 10000	16.5	> 10000	12.8	4690	2.28	O=C1C(=O)N(Cc2cccc([N+](=O)[O-])c2)c2ccc(S(=O)(=O)N3CCC[C@H]3CF)cc21
